Source: ChEMBL document CHEMBL1909046, “DrugMatrix in vitro pharmacology data”
pIC50, pKi: −log10 of the molar value.

Key:
[1] = molecular target: T1, Alpha-2A adrenergic receptor (Homo sapiens, UniProt P08913); format: cell membranes, Sf9, Membrane; settings: for IC50: sf9; for pIC50: read-out: IC50; for pKi: read-out: Ki; on all read-outs here: in other assays of this panel Not Active means under 50% inhibition at 10 µM
T1 sequence (P08913 whole entry): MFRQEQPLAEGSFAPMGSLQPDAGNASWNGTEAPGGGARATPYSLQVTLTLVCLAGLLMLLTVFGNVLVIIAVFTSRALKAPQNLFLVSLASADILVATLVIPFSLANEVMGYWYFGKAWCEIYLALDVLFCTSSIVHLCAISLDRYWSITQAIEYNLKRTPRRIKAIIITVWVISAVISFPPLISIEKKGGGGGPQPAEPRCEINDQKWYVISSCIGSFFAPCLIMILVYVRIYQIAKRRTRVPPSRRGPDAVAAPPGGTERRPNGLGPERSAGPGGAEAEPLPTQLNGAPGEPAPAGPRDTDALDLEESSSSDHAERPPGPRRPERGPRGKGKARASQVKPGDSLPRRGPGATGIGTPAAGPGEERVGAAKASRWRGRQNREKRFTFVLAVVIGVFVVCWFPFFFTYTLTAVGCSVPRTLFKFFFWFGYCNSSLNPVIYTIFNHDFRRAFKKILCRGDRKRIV

[2] = molecular target: T2, Alpha-2C adrenergic receptor (Homo sapiens, UniProt P18825); test: DRUGMATRIX: Adrenergic Alpha-2C radioligand binding (ligand: [3H] MK-912); format: cell membranes, Sf9, Membrane; settings: for IC50: sf9
T2 sequence (P18825 whole entry): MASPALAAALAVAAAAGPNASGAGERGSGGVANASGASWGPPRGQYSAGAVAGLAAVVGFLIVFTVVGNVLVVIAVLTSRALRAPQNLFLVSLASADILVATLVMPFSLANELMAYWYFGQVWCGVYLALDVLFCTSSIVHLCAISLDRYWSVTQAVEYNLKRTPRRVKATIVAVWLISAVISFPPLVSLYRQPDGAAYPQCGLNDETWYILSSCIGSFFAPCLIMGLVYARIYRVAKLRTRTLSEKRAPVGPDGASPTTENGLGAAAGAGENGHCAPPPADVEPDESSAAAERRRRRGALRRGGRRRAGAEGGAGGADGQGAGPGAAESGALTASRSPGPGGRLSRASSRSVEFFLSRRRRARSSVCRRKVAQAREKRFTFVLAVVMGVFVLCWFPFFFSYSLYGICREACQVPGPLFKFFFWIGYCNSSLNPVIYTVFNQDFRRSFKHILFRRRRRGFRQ

D(1A) dopamine receptor = D(1A) dopamine receptor (Homo sapiens, UniProt P21728); test: DRUGMATRIX: Dopamine D1 radioligand binding (ligand: [3H] SCH-23390); format: cell membranes, CHO, Membrane; settings: Not Active = under 50% inhibition at 10 µM; for IC50: cho
[3] = DRUGMATRIX: Phorbol Ester radioligand binding (ligand: [3H] PDBu); format: cell membranes, Mus musculus, ICR, Brain, Membrane; settings: Not Active = under 50% inhibition at 10 µM
Cathepsin G = molecular target: T3, Cathepsin G (Homo sapiens, UniProt P08311); test: biochemical; format: tissue-based, Neutrophil; settings: neutrophil;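 further: inhibition of Cathepsin G enzyme activity, tested on an AMC-conjugated peptide substrate; in other assays of this panel Not Active means under 50% inhibition at 10 µM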
T3 sequence (P08311 whole entry): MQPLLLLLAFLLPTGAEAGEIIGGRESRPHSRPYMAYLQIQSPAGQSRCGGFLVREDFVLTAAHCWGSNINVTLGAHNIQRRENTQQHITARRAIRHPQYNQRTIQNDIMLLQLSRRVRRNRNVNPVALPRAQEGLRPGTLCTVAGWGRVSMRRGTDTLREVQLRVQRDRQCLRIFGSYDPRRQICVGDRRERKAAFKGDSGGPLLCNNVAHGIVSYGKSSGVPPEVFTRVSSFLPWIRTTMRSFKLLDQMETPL

[4] = molecular target: Receptor tyrosine-protein kinase erbB-2 (Homo sapiens, UniProt P04626); format: cell-based; settings: insect cells;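 further: inhibition of HER2 kinase enzyme activity, measured with Poly(Glu:Tyr) as the phosphorylation substrate; in other assays of this panel Not Active means under 50% inhibition at 10 µM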
Chain of Receptor tyrosine-protein kinase erbB-2 (P04626 whole entry): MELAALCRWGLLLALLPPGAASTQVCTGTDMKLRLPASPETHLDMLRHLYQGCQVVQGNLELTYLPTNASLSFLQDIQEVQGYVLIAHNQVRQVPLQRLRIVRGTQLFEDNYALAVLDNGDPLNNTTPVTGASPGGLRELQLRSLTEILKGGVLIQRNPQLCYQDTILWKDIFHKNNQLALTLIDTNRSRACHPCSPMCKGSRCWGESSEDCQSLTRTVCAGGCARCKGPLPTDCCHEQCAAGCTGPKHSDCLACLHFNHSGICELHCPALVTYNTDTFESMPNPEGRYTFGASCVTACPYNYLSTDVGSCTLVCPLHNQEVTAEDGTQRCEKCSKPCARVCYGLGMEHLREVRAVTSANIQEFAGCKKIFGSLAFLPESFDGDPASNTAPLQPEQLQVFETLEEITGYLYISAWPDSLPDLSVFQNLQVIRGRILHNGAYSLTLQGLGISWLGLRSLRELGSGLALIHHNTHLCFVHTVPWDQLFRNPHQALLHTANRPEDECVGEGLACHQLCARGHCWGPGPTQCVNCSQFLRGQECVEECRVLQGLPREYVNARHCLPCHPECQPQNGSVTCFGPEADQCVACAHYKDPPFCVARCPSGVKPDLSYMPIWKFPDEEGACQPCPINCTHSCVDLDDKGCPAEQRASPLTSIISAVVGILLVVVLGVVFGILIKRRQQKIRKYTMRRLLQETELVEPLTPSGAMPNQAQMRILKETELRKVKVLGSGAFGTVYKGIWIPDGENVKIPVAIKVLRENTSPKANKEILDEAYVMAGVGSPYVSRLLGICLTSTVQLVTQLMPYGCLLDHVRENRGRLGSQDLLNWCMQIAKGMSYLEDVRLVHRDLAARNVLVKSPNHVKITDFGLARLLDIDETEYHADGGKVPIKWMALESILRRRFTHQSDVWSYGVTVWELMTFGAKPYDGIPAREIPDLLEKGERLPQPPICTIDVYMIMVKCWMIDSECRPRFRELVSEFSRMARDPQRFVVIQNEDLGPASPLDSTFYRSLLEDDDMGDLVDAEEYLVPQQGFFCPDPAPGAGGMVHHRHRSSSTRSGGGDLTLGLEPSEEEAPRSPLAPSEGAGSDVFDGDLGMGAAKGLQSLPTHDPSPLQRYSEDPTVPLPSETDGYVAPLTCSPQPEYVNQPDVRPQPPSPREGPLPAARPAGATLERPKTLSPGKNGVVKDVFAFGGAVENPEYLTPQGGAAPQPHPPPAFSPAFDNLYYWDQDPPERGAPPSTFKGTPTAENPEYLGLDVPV

Chain of D(1A) dopamine receptor (P21728 whole entry): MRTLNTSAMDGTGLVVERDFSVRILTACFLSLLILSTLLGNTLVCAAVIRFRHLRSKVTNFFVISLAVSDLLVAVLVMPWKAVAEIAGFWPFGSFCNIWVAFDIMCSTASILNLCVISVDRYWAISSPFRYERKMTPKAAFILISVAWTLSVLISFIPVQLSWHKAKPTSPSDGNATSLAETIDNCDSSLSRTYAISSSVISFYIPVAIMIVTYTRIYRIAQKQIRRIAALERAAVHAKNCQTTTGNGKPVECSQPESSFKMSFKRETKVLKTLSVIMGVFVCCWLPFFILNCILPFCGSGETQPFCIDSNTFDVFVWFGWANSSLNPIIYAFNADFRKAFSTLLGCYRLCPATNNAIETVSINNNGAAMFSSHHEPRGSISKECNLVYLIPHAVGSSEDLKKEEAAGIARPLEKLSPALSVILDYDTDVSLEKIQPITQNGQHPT

CC(C)(c1ccc(O)cc1)c1ccc(O)cc1 [BISPHENOL A]
Not Active: IC50 [1] | IC50 [2] | IC50 (D(1A) dopamine receptor) | IC50 [3] | Ki [3] | IC50 (Cathepsin G) | IC50 [4]

c1ccc2sc(SSc3nc4ccccc4s3)nc2c1 [BENZOTHIAZYL DISULFIDE]
6.23: pKi (D(1A) dopamine receptor; read-out: Ki)
Not Active: IC50 [3] | Ki [3] | IC50 (Cathepsin G) | IC50 [4]
5.92: pIC50 (D(1A) dopamine receptor; read-out: IC50)
6.05: pIC50 [1]
6.62: pKi ([2]; read-out: Ki)
6.47: pKi [1]
5.78: pIC50 ([2]; read-out: IC50)

CC(=O)Nc1ccc2c(c1)Cc1ccccc1-2 [2-ACETYLAMINOFLUORENE]
5.10: pKi [1]
4.68: pIC50 [1]
Not Active: IC50 [2] | IC50 (D(1A) dopamine receptor) | IC50 [3] | Ki [3] | IC50 (Cathepsin G) | IC50 [4]

c1ccc(Cn2ccnc2)cc1
Not Active: IC50 [1] | IC50 [2] | IC50 (D(1A) dopamine receptor) | IC50 [3] | Ki [3] | IC50 (Cathepsin G) | IC50 [4]

Nc1ccc(Cc2ccc(N)cc2)cc1
Not Active: IC50 [1] | IC50 [2] | IC50 (D(1A) dopamine receptor) | IC50 [3] | Ki [3] | IC50 (Cathepsin G) | IC50 [4]

CC(N)Cc1c[nH]c2ccc(OCc3cccs3)cc12 (stereo not drawn) [BW-723C86]
Not Active: IC50 [1] | IC50 [2] | IC50 (D(1A) dopamine receptor) | IC50 [3] | Ki [3] | IC50 (Cathepsin G) | IC50 [4]

CCO [ALCOHOL]
Not Active: IC50 [1] | IC50 [2] | IC50 (D(1A) dopamine receptor) | IC50 [3] | Ki [3] | IC50 (Cathepsin G) | IC50 [4]

CC[C@H]1OC(=O)[C@H](C)[C@@H](O[C@H]2C[C@@](C)(OC)[C@@H](O)[C@H](C)O2)[C@H](C)[C@@H](O[C@@H]2O[C@H](C)C[C@H](N(C)C)[C@H]2O)[C@](C)(O)C[C@@H](C)C(=O)[C@H](C)[C@@H](O)[C@]1(C)O [ERYTHROMYCIN]
Not Active: IC50 [1] | IC50 [2] | IC50 (D(1A) dopamine receptor) | IC50 [3] | Ki [3] | IC50 (Cathepsin G) | IC50 [4]

O=C(O)CNCP(=O)(O)O [GLYPHOSATE]
Not Active: IC50 [1] | IC50 [2] | IC50 (D(1A) dopamine receptor) | IC50 [3] | Ki [3] | IC50 (Cathepsin G) | IC50 [4]

Nc1nc(N)c2nc(CNc3ccc(C(=O)N[C@@H](CCC(=O)O)C(=O)O)cc3)cnc2n1 [AMINOPTERIN]
Not Active: IC50 [1] | IC50 [2] | IC50 (D(1A) dopamine receptor) | IC50 [3] | Ki [3] | IC50 (Cathepsin G) | IC50 [4]

CC(C)Cn1cnc2c(N)nc3ccccc3c21 [IMIQUIMOD]
Not Active: IC50 [1] | IC50 [2] | IC50 (D(1A) dopamine receptor) | IC50 [3] | Ki [3] | IC50 (Cathepsin G) | IC50 [4]

C[N+](C)(C)CCOP(=O)([O-])OC[C@H](O)CO
Not Active: IC50 [1] | IC50 [2] | IC50 (D(1A) dopamine receptor) | IC50 [3] | Ki [3] | IC50 (Cathepsin G) | IC50 [4]
